Test: Partition coefficient (logP)
Format: physicochemical
Settings: octanol/water

| logP | Structure (SMILES) |
| --- | --- |
| 4.92 | CCCCc1nc2[nH]cnc2c2nc(-c3ccc(OCCC)cc3)nn12 |
| 4.78 | CCCCc1nc2nc[nH]c2c2nc(-c3ccccc3Cl)nn12 |
| 4.66 | CCCCc1nc2nc[nH]c2c2nc(-c3ccc(SC)cc3)nn12 |
| 2.89 | CCCCc1nc2[nH]cnc2c2nc(-c3cccnc3)nn12 |
| 5.15 | CCCCc1nc2[nH]cnc2c2nc(-c3ccc(C(F)(F)F)cc3)nn12 |
| 4.64 | CCCCCc1nc2nc[nH]c2c2nc(-c3ccccc3)nn12 |
| 2.57 | CCCCc1nc2[nH]cnc2c2nc(C)nn12 |
| 4.23 | CCCCc1nc2[nH]cnc2c2nc(-c3ccccc3)nn12 |
| 4.78 | CCCCc1nc2nc[nH]c2c2nc(-c3cccc(Cl)c3)nn12 |
| 3.84 | CCCCc1nc2nc[nH]c2c2nc(-c3ccc(O)cc3)nn12 |
| 4.71 | CCCCc1nc2[nH]cnc2c2nc(-c3cccc(C)c3)nn12 |
| 5.93 | CCCCc1nc2[nH]cnc2c2nc(-c3ccc(C(C)(C)C)cc3)nn12 |
| 4.78 | CCCCc1nc2nc[nH]c2c2nc(-c3ccc(Cl)cc3)nn12 |
| 5.06 | CCCCCCc1nc2nc[nH]c2c2nc(-c3ccccc3)nn12 |
| 4.1 | CCCCc1nc2[nH]cnc2c2nc(-c3ccc(OC)cc3)nn12 |
| 4.38 | CCCCc1nc2nc[nH]c2c2nc(-c3ccc(F)cc3)nn12 |
| 4.51 | CCCCc1nc2[nH]cnc2c2nc(-c3ccc(N(C)C)cc3)nn12 |
| 5.9 | CCCCc1nc2nc[nH]c2c2nc(-c3ccc(-c4ccccc4)cc3)nn12 |
| 2.84 | CCCCc1nc2[nH]cnc2c2nc(-c3ccco3)nn12 |
| 4.2 | c1ccc(-c2nc3c4nc[nH]c4nc(-c4ccccc4)n3n2)cc1 |
| 4.71 | CCCCc1nc2[nH]cnc2c2nc(-c3ccc(C)cc3)nn12 |
| 2.82 | Cc1nc2[nH]cnc2c2nc(-c3ccccc3)nn12 |
| 5.05 | CCCCc1nc2nc[nH]c2c2nc(-c3ccc(Br)cc3)nn12 |
| 3.85 | CCCCc1nc2[nH]cnc2c2nc(-c3cc(OC)c(OC)c(OC)c3)nn12 |
| 4.1 | CCCCc1nc2[nH]cnc2c2nc(-c3cccc(OC)c3)nn12 |
| 3.39 | CCc1nc2[nH]cnc2c2nc(-c3ccccc3)nn12 |
| 4.33 | CCCCc1nc2[nH]cnc2c2nc(Cc3ccccc3)nn12 |
| 3.81 | CCCc1nc2nc[nH]c2c2nc(-c3ccccc3)nn12 |
| 4.44 | CCCCc1nc2nc[nH]c2c2nc(-c3ccc(OCC)cc3)nn12 |

— ChEMBL document CHEMBL1146798, “QSAR of adenosine receptor antagonists. Part 3: Exploring physicochemical requirements for selective binding of 1,2,4-triazolo[5,1-i]purine derivatives with human adenosine A3 receptor subtype” (Bioorg Med Chem Lett, 2004)
